Measurements taken from patent publication US20240148821A1, “PHARMACEUTICAL USE OF CYCLIC PEPTIDE COMPOUND” (CHUGAI SEIYAKU KABUSHIKI KAISHA, priority 2021, published 2024).
Bridge positions count the residues as written; N and C are the ends. Square brackets hold non-standard residues; d marks the D form. Peptide text beside a SMILES is read from it. * marks the point of attachment. hPhe(3,5-F2-4-CF3) = N[C@@H](CCc1cc(F)c(C(F)(F)F)c(F)c1)C(=O)O; hPhe(3-Cl-4-CF3) = N[C@@H](CCc1ccc(C(F)(F)F)c(Cl)c1)C(=O)O; hPhe(3-F,4-CF3) = N[C@@H](CCc1ccc(C(F)(F)F)c(F)c1)C(=O)O; 3Oxa8azabicyclo(3.2.1)octane = C1CC2COCC1N2*; NEtPhe(4-Me) = CCN[C@@H](Cc1ccc(C)cc1)C(=O)O; NMePhe(4-Me) = CN[C@@H](Cc1ccc(C)cc1)C(=O)O; NMeAla(cPent) = CN[C@@H](CC1CCCC1)C(=O)O; NMeGly(cPent) = CN[C@H](C(=O)O)C1CCCC1; NMeCha = CN[C@@H](CC1CCCCC1)C(=O)O; NMehLeu = CN[C@@H](CCC(C)C)C(=O)O; NEtLeu = CCN[C@@H](CC(C)C)C(=O)O; NMeI = CC[C@H](C)[C@H](NC)C(=O)O; Piperidide(4-Me) = CC1CCN(*)CC1; X17 = FC1(F)CN(*)CC(F)(F)C1(F)F; NMeD = CN[C@@H](CC(=O)O)C(=O)O; NMeL = CN[C@@H](CC(C)C)C(=O)O; NMeV = CN[C@H](C(=O)O)C(C)C; d(β3hA) = C[C@@H](N)CC(=O)O; Azetidin(1-yl) = C1CN(*)C1; NMeS = CN[C@@H](CO)C(=O)O; Morpholide = C1CN(*)CCO1; NMeA = CN[C@@H](C)C(=O)O; Piperidide = C1CCN(*)CC1; Ac5c = NC1(C(=O)O)CCCC1; Aze = O=C(O)[C@@H]1CCN1; X53 = CC1(C)CCN(*)C1; NEtG = CCNCC(=O)O; Sar = CNCC(=O)O; Propyl = CCC*

target: protein-protein interaction between Kras and SOS1 (biotin-tagged human Kras loaded with GDP, His-tagged human SOS1) (Homo sapiens (Human), UniProt P01116, G12D); test: Protein-protein interaction inhibition between Kras and SOS1 (KrasG12D-SOS PPI) using AlphaScreen; assay type: biochemical; conditions: AlphaScreen; biotin-tagged human Kras loaded with GDP, His-tagged human SOS1; read-out: KRAS G12D-SOS PPI IC50;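 further: kras produced in E. coli, Ni-coupled donor beads and streptavidin acceptor beads, excitation 680 nm with emission detected at 520–620 nm via singlet oxygen transfer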

SMILES	IC50 [nM]
CC[C@H](C)[C@@H]1NC(=O)[C@H](CC(C)C)N(C)C(=O)C[C@@H](C(=O)N2C3CCC2COC3)N(C)C(=O)[C@H](C2CCCC2)N(C)C(=O)C2(CCCC2)NC(=O)[C@@H]2CCCN2C(=O)[C@H](CCc2ccc(C(F)(F)F)c(Cl)c2)NC(=O)CN(C)C(=O)[C@H](Cc2ccc(C)cc2)N(CC)C(=O)[C@@H]2CCN2C(=O)[C@H](C)N(C)C1=O [Compound 1236] ([NMeL]I[NMeA][Aze][NEtPhe(4-Me)][Sar][hPhe(3-Cl-4-CF3)]P[Ac5c][NMeGly(cPent)][NMeD]-{3Oxa8azabicyclo(3.2.1)octane}; lactam N-11)	7.3
CCCOC[C@H]1C(=O)N(C)CC(=O)N[C@@H](CCc2ccc(C(F)(F)F)c(Cl)c2)C(=O)N2CCC[C@H]2C(=O)NC2(CCCC2)C(=O)N(C)[C@@H](C2CCCC2)C(=O)N(C)[C@H](C(=O)N2C3CCC2COC3)CC(=O)N(C)[C@@H](CC2CCCC2)C(=O)N[C@@H]([C@@H](C)CC)C(=O)N(C)[C@@H](C)C(=O)N2CC[C@H]2C(=O)N1C [Compound 1251] ([NMeAla(cPent)]I[NMeA][Aze][NMeS](Propyl)[Sar][hPhe(3-Cl-4-CF3)]P[Ac5c][NMeGly(cPent)][NMeD]-{3Oxa8azabicyclo(3.2.1)octane}; lactam N-11)	2.6
CC[C@H](C)[C@@H]1NC(=O)[C@H](CC(C)C)N(CC)C(=O)C[C@@H](C(=O)N2CCC2)N(C)C(=O)[C@H](C2CCCC2)N(C)C(=O)C2(CCCC2)NC(=O)[C@@H]2CCCN2C(=O)[C@H](CCc2ccc(C(F)(F)F)c(Cl)c2)NC(=O)CN(C)C(=O)[C@H](CC2CCCCC2)N(C)C(=O)[C@@H]2CCN2C(=O)[C@H](C)NC1=O [Compound 1262] ([NEtLeu]IA[Aze][NMeCha][Sar][hPhe(3-Cl-4-CF3)]P[Ac5c][NMeGly(cPent)][NMeD]-{Azetidin(1-yl)}; lactam N-11)	1.3
CC[C@H](C)[C@@H]1NC(=O)[C@H](CC(C)C)N(C)C(=O)C[C@@H](C(=O)N2CC(F)(F)C(F)(F)C(F)(F)C2)NC(=O)[C@H]([C@@H](C)CC)N(C)C(=O)C2(CCCC2)NC(=O)[C@@H]2CCCN2C(=O)[C@H](CCc2ccc(C(F)(F)F)c(Cl)c2)NC(=O)CN(C)C(=O)[C@H](CC2CCCCC2)N(C)C(=O)CN(C)C(=O)CN(C)C1=O [Compound 1265] ([NMeL]I[Sar][Sar][NMeCha][Sar][hPhe(3-Cl-4-CF3)]P[Ac5c][NMeI]D-X17; lactam N-11)	280
CC[C@H](C)[C@@H]1NC(=O)[C@H](CC(C)C)N(CC)C(=O)C[C@@H](C(=O)N2CCOCC2)N(C)C(=O)[C@H](C2CCCC2)N(C)C(=O)C2(CCCC2)NC(=O)[C@@H]2CCCN2C(=O)[C@H](CCc2ccc(C(F)(F)F)c(Cl)c2)NC(=O)CN(C)C(=O)[C@H](CC2CCCCC2)N(C)C(=O)[C@@H]2CCN2C(=O)[C@H](C)NC1=O [Compound 1266] ([NEtLeu]IA[Aze][NMeCha][Sar][hPhe(3-Cl-4-CF3)]P[Ac5c][NMeGly(cPent)][NMeD]-Morpholide; lactam N-11)	1.2
CC[C@H](C)[C@@H]1NC(=O)[C@H](CC(C)C)N(C)C(=O)C[C@@H](C(=O)N2CCC(C)(C)C2)NC(=O)[C@H](C(C)C)N(C)C(=O)C2(CCCC2)NC(=O)[C@@H]2CCCN2C(=O)[C@H](CCc2ccc(C(F)(F)F)c(Cl)c2)NC(=O)CN(C)C(=O)[C@H](CC2CCCCC2)N(C)C(=O)[C@@H]2CCN2C(=O)[C@H](C)N(C)C1=O [Compound 1280] ([NMeL]I[NMeA][Aze][NMeCha][Sar][hPhe(3-Cl-4-CF3)]P[Ac5c][NMeV]D-X53; lactam N-11)	74
CC[C@H](C)[C@@H]1NC(=O)[C@H](CC(C)C)N(CC)C(=O)C[C@@H](C(=O)N(C)C)N(C)C(=O)[C@H]([C@@H](C)CC)N(C)C(=O)C2(CCCC2)NC(=O)[C@@H]2CCCN2C(=O)[C@H](CCc2ccc(C(F)(F)F)c(Cl)c2)NC(=O)CN(C)C(=O)[C@H](Cc2ccc(C)cc2)N(C)C(=O)[C@@H]2CCN2C(=O)[C@H](C)NC1=O [Compound 1287] ([NEtLeu]IA[Aze][NMePhe(4-Me)][Sar][hPhe(3-Cl-4-CF3)]P[Ac5c][NMeI][NMeD]-NMe2; lactam N-11)	1.1
CC[C@H](C)[C@@H]1NC(=O)[C@H](CC(C)C)N(C)C(=O)C[C@@H](C(=O)N2CCC(C)CC2)N(C)C(=O)[C@H](C(C)C)N(C)C(=O)C2(CCCC2)NC(=O)[C@@H]2CCCN2C(=O)[C@H](CCc2ccc(C(F)(F)F)c(Cl)c2)NC(=O)CN(C)C(=O)[C@H](CC2CCCCC2)N(C)C(=O)[C@@H]2CCN2C(=O)[C@H](C)N(C)C1=O [Compound 1291] ([NMeL]I[NMeA][Aze][NMeCha][Sar][hPhe(3-Cl-4-CF3)]P[Ac5c][NMeV][NMeD]-{Piperidide(4-Me)}; lactam N-11)	5.4
CC[C@H](C)[C@@H]1NC(=O)[C@H](CCC(C)C)N(C)C(=O)C[C@@H](C(=O)N(C)C)N(C)C(=O)[C@H](C2CCCC2)N(C)C(=O)C2(CCCC2)NC(=O)[C@@H]2CCCN2C(=O)[C@H](CCc2ccc(C(F)(F)F)c(F)c2)NC(=O)CN(C)C(=O)[C@H](CC2CCCCC2)N(C)C(=O)[C@@H]2CCN2C(=O)[C@H](C)NC1=O [Compound 1292] ([NMehLeu]IA[Aze][NMeCha][Sar][hPhe(3-F,4-CF3)]P[Ac5c][NMeGly(cPent)][NMeD]-NMe2; lactam N-11)	2
CCCOC[C@H]1C(=O)N(C)CC(=O)N[C@@H](CCc2ccc(C(F)(F)F)c(Cl)c2)C(=O)N2CCC[C@H]2C(=O)NC2(CCCC2)C(=O)N(C)[C@@H](C2CCCC2)C(=O)N(C)[C@H](C(=O)N2C3CCC2COC3)CC(=O)N(C)[C@@H](CC(C)C)C(=O)N[C@@H]([C@@H](C)CC)C(=O)N[C@@H](C)C(=O)N2CC[C@H]2C(=O)N1C [Compound 1299] ([NMeL]IA[Aze][NMeS](Propyl)[Sar][hPhe(3-Cl-4-CF3)]P[Ac5c][NMeGly(cPent)][NMeD]-{3Oxa8azabicyclo(3.2.1)octane}; lactam N-11)	3.6
CC[C@H](C)[C@@H]1NC(=O)[C@H](CC(C)C)N(C)C(=O)C[C@@H](C(=O)N2CCOCC2)N(C)C(=O)[C@H](C2CCCC2)N(C)C(=O)C2(CCCC2)NC(=O)[C@@H]2CCCN2C(=O)[C@H](CCc2ccc(C(F)(F)F)c(Cl)c2)NC(=O)CN(C)C(=O)[C@H](C2CCCC2)N(C)C(=O)[C@@H]2CCN2C(=O)[C@H](C)NC1=O [Compound 1309] ([NMeL]IA[Aze][NMeGly(cPent)][Sar][hPhe(3-Cl-4-CF3)]P[Ac5c][NMeGly(cPent)][NMeD]-Morpholide; lactam N-11)	0.85
CCCOC[C@H]1C(=O)N(C)CC(=O)N[C@@H](CCc2ccc(C(F)(F)F)c(Cl)c2)C(=O)N2CCC[C@H]2C(=O)NC2(CCCC2)C(=O)N(C)[C@@H](C2CCCC2)C(=O)N(C)[C@H](C(=O)N2C3CCC2COC3)CC(=O)N(C)[C@@H](CCC(C)C)C(=O)N[C@@H]([C@@H](C)CC)C(=O)N[C@@H](C)C(=O)N2CC[C@H]2C(=O)N1C [Compound 1326] ([NMehLeu]IA[Aze][NMeS](Propyl)[Sar][hPhe(3-Cl-4-CF3)]P[Ac5c][NMeGly(cPent)][NMeD]-{3Oxa8azabicyclo(3.2.1)octane}; lactam N-11)	5.1
CC[C@H](C)[C@@H]1NC(=O)[C@H](CC(C)C)N(C)C(=O)C[C@@H](C)NC(=O)[C@H](C2CCCC2)N(C)C(=O)C2(CCCC2)NC(=O)[C@@H]2CCCN2C(=O)[C@H](CCc2ccc(C(F)(F)F)c(Cl)c2)NC(=O)CN(C)C(=O)[C@H](Cc2ccc(C)cc2)N(C)C(=O)[C@@H]2CCN2C(=O)[C@H](C)NC1=O [Compound 1331] (cyclo(A[Aze][NMePhe(4-Me)][Sar][hPhe(3-Cl-4-CF3)]P[Ac5c][NMeGly(cPent)][d(β3hA)][NMeL]I))	1.1
CC[C@H](C)[C@@H]1NC(=O)[C@H](CC(C)C)N(C)C(=O)C[C@@H](C(=O)N2CCCCC2)N(C)C(=O)[C@H](C(C)C)N(C)C(=O)C2(CCCC2)NC(=O)[C@@H]2CCCN2C(=O)[C@H](CCc2ccc(C(F)(F)F)c(Cl)c2)NC(=O)CN(C)C(=O)[C@H](CC2CCCCC2)N(C)C(=O)[C@@H]2CCN2C(=O)[C@H](C)NC1=O [Compound 1334] ([NMeL]IA[Aze][NMeCha][Sar][hPhe(3-Cl-4-CF3)]P[Ac5c][NMeV][NMeD]-Piperidide; lactam N-11)	3
CCCOC[C@H]1C(=O)N(CC)CC(=O)N[C@@H](CCc2ccc(C(F)(F)F)c(Cl)c2)C(=O)N2CCC[C@H]2C(=O)NC2(CCCC2)C(=O)N(C)[C@@H](C2CCCC2)C(=O)N(C)[C@H](C(=O)N2C3CCC2COC3)CC(=O)N(C)[C@@H](CC(C)C)C(=O)N[C@@H]([C@@H](C)CC)C(=O)N(C)[C@@H](C)C(=O)N2CC[C@H]2C(=O)N1C [Compound 1338] ([NMeL]I[NMeA][Aze][NMeS](Propyl)[NEtG][hPhe(3-Cl-4-CF3)]P[Ac5c][NMeGly(cPent)][NMeD]-{3Oxa8azabicyclo(3.2.1)octane}; lactam N-11)	17
CC[C@H](C)[C@@H]1NC(=O)[C@H](CC2CCCC2)N(C)C(=O)C[C@@H](C(=O)N(C)C)N(C)C(=O)[C@H](C2CCCC2)N(C)C(=O)C2(CCCC2)NC(=O)[C@@H]2CCCN2C(=O)[C@H](CCc2ccc(C(F)(F)F)c(F)c2)NC(=O)CN(C)C(=O)[C@H](CC2CCCCC2)N(C)C(=O)[C@@H]2CCN2C(=O)[C@H](C)NC1=O [Compound 1340] ([NMeAla(cPent)]IA[Aze][NMeCha][Sar][hPhe(3-F,4-CF3)]P[Ac5c][NMeGly(cPent)][NMeD]-NMe2; lactam N-11)	1.2
CC[C@H](C)[C@@H]1NC(=O)[C@H](CC(C)C)N(C)C(=O)C[C@@H](C(=O)N2CCCCC2)NC(=O)[C@H](C(C)C)N(C)C(=O)C2(CCCC2)NC(=O)[C@@H]2CCCN2C(=O)[C@H](CCc2ccc(C(F)(F)F)c(Cl)c2)NC(=O)CN(C)C(=O)[C@H](CC2CCCCC2)N(C)C(=O)[C@@H]2CCN2C(=O)[C@H](C)N(C)C1=O [Compound 1353] ([NMeL]I[NMeA][Aze][NMeCha][Sar][hPhe(3-Cl-4-CF3)]P[Ac5c][NMeV]D-Piperidide; lactam N-11)	11
CCCOC[C@H]1C(=O)N(C)CC(=O)N[C@@H](CCc2cc(F)c(C(F)(F)F)c(F)c2)C(=O)N2CCC[C@H]2C(=O)NC2(CCCC2)C(=O)N(C)[C@@H](C2CCCC2)C(=O)N(C)[C@H](C(=O)N2C3CCC2COC3)CC(=O)N(C)[C@@H](CC(C)C)C(=O)N[C@@H]([C@@H](C)CC)C(=O)N(C)[C@@H](C)C(=O)N2CC[C@H]2C(=O)N1C [Compound 1355] ([NMeL]I[NMeA][Aze][NMeS](Propyl)[Sar][hPhe(3,5-F2-4-CF3)]P[Ac5c][NMeGly(cPent)][NMeD]-{3Oxa8azabicyclo(3.2.1)octane}; lactam N-11)	3.2
